From patent US4657891A, “Diuretic peptide, and production and use thereof” (Suntory Limited, priority 1984, dated 1987)
Bridge positions count the residues as written; N and C are the ends. Ends that are not written are not given here.

Experiments:
Male rats [1] = test: Diuretic and natriuretic test in anesthetized rats, urine collected before and 5 minutes after jugular vein injection (Table 2); assay type: in vivo, rat; details: furosemide 1.21 μmole (group IV)
Description: To keep the respiratory tract open, a tracheal cannula (PE-240 Clay-Adams) was inserted into the trachea. An arterial cannula (PE-50) was inserted into a femoral artery for measurement of the blood pressure, and a venous cannula was inserted into a femoral vein for the administration of Ringer's solution.
The collection of urine was carried out for 30 minutes before administration of the test compound, and every five minutes after the administration.
The control group (group I) was administered 50 μl of physiological saline containing only bacitracin.

Male rats [2] = test: Another test: relative amounts of urine, Na+, K+, Cl- for 30 minutes before and after administration (Table 3); assay type: in vivo, rat; details: Furosemide 0.3 μmol
Description: Male rats weighing 300 to 400 grams were anesthetized by intraperitoneal administration of pentobarbital at a dosage of 60 mg/kg, and used for tests of the β-rANP according to the method described in Life Sciences, Vol. 28, pp 89-94.
To keep the respiratory tract open, a tracheal cannula (PE-240 Clay-Adams) was inserted into the trachea. An arterial cannula (PE-50) was inserted into a femoral artery for measurement of the blood pressure, and a venous cannula was inserted into a femoral vein for the administration of Ringer's solution. 1.2 ml of Ringer's solution was infused at a flow rate of 1.2 ml/hour.
A bladder cannula made of silastic tube with a inner diameter of 0.02 inches and an outer diameter of 0.037 inches was inserted into the bladder, and via the cannula, a urine sample was collected into a test tube. The collection of urine was carried out for 30 minutes before administration of the test compound, and every five minutes after the administration.
A predetermined amount of the test compound β-rANP was dissolved in 50 μl of sterilized physiological saline with 5 μg of bacitracin, and the solution was injected into the jugular vein.

Solubility in solvents = assay type: physicochemical
From the text: (6) Solubility in solvents: soluble in water, partially in methanol, and acetic acid; insoluble in ethyl acetate, butyl acetate, ethyl ether, hexane, petroleum ether, benzene, and chloroform.

[3] = Repeated administration: antibody production, anaphylaxis shock, toxicity; assay type: in vivo

Question: Which “Urine volume A” value (Male rats [1]; A: sample collected 5 minutes after administration) does the source give for NS(=O)(=O)c1cc(C(=O)O)c(NCc2ccco2)cc1Cl [Furosemide, furosemide] here?
Answer: 167 ± 28 µL/min

Question: And the “Urine volume B” value (Male rats [1]; B: sample collected 30 minutes before administration)?
Answer: 8.6 ± 1.9 µL/min

Question: And the “Urine volume, percentage after relating to before” value (Male rats [2])?
Answer: 497 ± 165%

Question: Which Solubility in solvents (Solubility in solvents; ethyl acetate, butyl acetate, ethyl ether, hexane, petroleum ether, benzene, and chloroform) does the source give for “PSDRSALLKSKLRALLAGPRSLRRSSCFGGRIDRIGAQSGLGCNSFRY (disulfide 27-43) [β-rANP, β-rat atrial natriuretic polypeptide]” here?
Answer: insoluble

Question: What about the Solubility in solvents (Solubility in solvents; methanol, and acetic acid) of the same compound?
Answer: partially

Question: And the Solubility in solvents (Solubility in solvents; water)?
Answer: soluble

Question: And the toxicity ([3]; in vivo)?
Answer: little toxicity

Question: What about the anaphylaxis shock ([3]; repeated administration) of the same compound?
Answer: does not cause

Question: And the production of antibodies ([3]; repeated administration)?
Answer: does not stimulate
